Laboratory results published in US10577332B2, “Tetrazole derivatives” (Hoffmann-La Roche Inc., priority 2015, dated 2020).

Experiments:
human EAAT3 = target: T1, human EAAT3 (Homo sapiens, UniProt P43005); experiment: FLIPR Membrane Potential (FMP) assay; format: cell-based; conditions: HEK-293 cells stably expressing human EAAT3; antagonist applied 15 min before L-glutamate at EC80; Kb by Cheng-Prusoff from IC50
T1 construct: expressed in transfected cells
T1 sequence (P43005 1-524): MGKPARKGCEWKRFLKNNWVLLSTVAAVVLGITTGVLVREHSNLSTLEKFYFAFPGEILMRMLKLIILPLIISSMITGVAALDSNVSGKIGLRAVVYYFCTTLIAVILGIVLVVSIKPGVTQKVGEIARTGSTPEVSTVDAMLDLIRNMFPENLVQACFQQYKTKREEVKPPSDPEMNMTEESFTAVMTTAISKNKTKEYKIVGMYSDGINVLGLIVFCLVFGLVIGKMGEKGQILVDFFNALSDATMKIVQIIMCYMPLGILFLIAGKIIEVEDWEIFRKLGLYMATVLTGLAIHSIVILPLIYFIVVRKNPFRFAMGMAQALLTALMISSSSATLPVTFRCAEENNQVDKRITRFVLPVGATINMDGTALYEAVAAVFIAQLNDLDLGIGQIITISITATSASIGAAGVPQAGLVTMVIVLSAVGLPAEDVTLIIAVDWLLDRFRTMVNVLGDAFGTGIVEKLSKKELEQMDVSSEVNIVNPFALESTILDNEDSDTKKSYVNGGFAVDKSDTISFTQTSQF
Protocol: The FLIPR Membrane Potential (FMP) Assay
HEK-293 cells stably expressing human EAAT3 were seeded at 55 000 cells/well in growth medium (DMEM glutamate free (Invitrogen 11960-044), 1% Pen Strep (10 ml/l GIBCO BRL No 15140-023), 10% FCS non dialysed heat inactivated, 5 mg/l puromycin) in poly-D-lysine treated 96-well black microtiter plates with clear-bottom. After 24 h, the growth medium was removed and 100 μl/well of Krebs buffer (140 mM NaCl, 4.7 mM KCl, 2.5 mM CaCl2, 1.2 mM MgCl2, 11 mM HEPES, 10 mM D-glucose, pH=7.4) added. The cells were then loaded by adding 100 μl/well FMP assay dye (FLIPR Membrane Potential assay reagent, Molecular Devices). The 96-well plates were then incubated at 37° C. for 1 h. The depolarization of the cells will cause more dye to enter in the cells, where it will bind to intracellular proteins and lipids and cause an increase in the fluorescence signal. Antagonist potency at human EAAT3 was determined by using L-glutamate as agonist at a concentration which gives 80% of the maximum response. The antagonists were applied 15 min before the application of the agonist L-glutamate. The assays were performed at room temperature and measurements done by using a Fluorometric Imaging Plate Reader (FLIPR, Molecular Devices) and filter #2. Responses were measured as peak increase in fluorescence minus basal (i.e. fluorescence without addition of L-glutamate). Kb was determined using the Cheng-Prusoff equation Kb=IC50/[1+(A/EC50)], where IC50 is the concentration of the antagonist producing 50% inhibition, A is the concentration of the agonist against which the IC50 is being determined (at EC80) and EC50 is the concentration of the agonist producing 50% […].

Structure (SMILES) | Kb (human EAAT3) [nM] | melting point [°C]
Cc1ccc(-c2cc(C(=O)NC(C)(C)C(F)(F)F)cc(-n3cnnn3)c2)cc1 [Example 13, 3-(4-Methylphenyl)-5-(tetrazol-1-yl)-N-(1,1,1-trifluoro-2-methylpropan-2-yl)-benzamide] | 650 | 190.5
CC1(NC(=O)c2cc(-c3ccc(Cl)cc3)cc(-n3cnnn3)c2)CCS(=O)(=O)C1 (racemic) [Example 16, (RS)-3-(4-Chlorophenyl)-N-(3-methyl-1,1-dioxothiolan-3-yl)-5-(tetrazol-1-yl)-benzamide] | 630 | 204
Cc1ccc(-c2cc(C(=O)NC(C)(C)C)cc(-n3nnnc3C3CC3)c2)cc1 [Example 29, N-tert-Butyl-3-(5-cyclopropyltetrazol-1-yl)-5-(4-methylphenyl)-benzamide] | 200 | 91
CC1(NC(=O)c2cc(-c3ccc(F)cc3)cc(-n3cnnn3)c2)CCS(=O)(=O)C1 (racemic) [Example 4, (RS)-3-(4-Fluorophenyl)-N-(3-methyl-1,1-dioxothiolan-3-yl)-5-(tetrazol-1-yl)-benzamide] | 460 | 146.5
CCC(C)(C)NC(=O)c1cc(-c2ccc(Cl)cc2)cc(-n2nnnc2C(C)C)c1 [Example 42, 3-(4-Chlorophenyl)-N-(2-methylbutan-2-yl)-5-(5-propan-2-yltetrazol-1-yl)-benzamide] | 160 | 85
CCC(C)(C)NC(=O)c1cc(-c2ccc(F)cc2)cc(-n2cnnn2)c1 [Example 1, 3-(4-Fluorophenyl)-N-(2-methylbutan-2-yl)-5-(tetrazol-1-yl)-benzamide] | 145 | 200
CCC(C)(C)NC(=O)c1cc(-c2ccc(F)c(F)c2)cc(-n2cnnn2)c1 [Example 39, 3-(3,4-Difluorophenyl)-N-(2-methylbutan-2-yl)-5-(tetrazol-1-yl)-benzamide] | 200 | 189
CCC(C)(C)NC(=O)c1cc(-c2ccc(F)c(C)c2)cc(-n2cnnn2)c1 [Example 6, 3-(4-Fluoro-3-methylphenyl)-N-(2-methylbutan-2-yl)-5-(tetrazol-1-yl)-benzamide] | 410 | 120
CCC(C)(C)NC(=O)c1cc(-c2ccc(C)cc2)cc(-n2nnnc2C(C)C)c1 [Example 10, N-(2-Methylbutan-2-yl)-3-(4-methylphenyl)-5-(5-propan-2-yltetrazol-1-yl)-benzamide] | 230 | 104
CC(C)c1nnnn1-c1cc(C(=O)NC(C)(C)C)cc(-c2ccc(Cl)cc2)c1 [Example 43, N-tert-Butyl-3-(4-chlorophenyl)-5-(5-propan-2-yltetrazol-1-yl)-benzamide] | 89 | 90
CCC(C)(C)NC(=O)c1cc(-c2ccc(Cl)cc2)cc(-n2cnnn2)c1 [Example 11, 3-(4-Chlorophenyl)-N-(2-methylbutan-2-yl)-5-(tetrazol-1-yl)-benzamide] | 76 | 206
CCC(C)(C)NC(=O)c1cc(-c2ccc(OC)cc2)cc(-n2cnnn2)c1 [Example 7, 3-(4-Methoxyphenyl)-N-(2-methylbutan-2-yl)-5-(tetrazol-1-yl)-benzamide] | 410 | 150
Cc1ccc(-c2cc(C(=O)NC3(C)CCS(=O)(=O)C3)cc(-n3nnnc3C)c2)cc1 (racemic) [Example 24, (RS)-N-(3-Methyl-1,1-dioxothiolan-3-yl)-3-(4-methylphenyl)-5-(5-methyltetrazol-1-yl)-benzamide] | 380 | 69

Next, values leading:

Kb (human EAAT3) [nM] | melting point [°C] | Structure (SMILES)
380 | 73 | CC(C)(NC(=O)c1cc(-c2ccc(F)cc2)cc(-n2nnnc2C2CC2)c1)C1CC1 [Example 72, N-(2-Cyclopropylpropan-2-yl)-3-(5-cyclopropyltetrazol-1-yl)-5-(4-fluorophenyl)-benzamide]
180 | 85 | Cc1nnnn1-c1cc(C(=O)NC(C)(C)C2CC2)cc(-c2ccc(Cl)cc2)c1 [Example 83, 3-(4-Chlorophenyl)-N-(2-cyclopropylpropan-2-yl)-5-(5-methyltetrazol-1-yl)-benzamide]
120 | 222 | Cc1ccc(-c2cc(C(=O)NC(C)(C)C)cc(-n3nnnc3C(C)(C)C)c2)cc1 [Example 102, N-tert-Butyl-3-(5-tert-butyltetrazol-1-yl)-5-(4-methylphenyl)-benzamide]
370 | 91.5 | Cc1ccc(-c2cc(C(=O)NC(C)(C)C3CC3)cc(-n3nnnc3C(C)(C)C)c2)cc1 [Example 109, 3-(5-tert-Butyltetrazol-1-yl)-N-(2-cyclopropylpropan-2-yl)-5-(4-methylphenyl)-benzamide]
180 | 74 | CCC(C)(C)NC(=O)c1cc(-c2ccc(F)cc2)cc(-n2nnnc2C2CC2)c1 [Example 68, 3-(5-Cyclopropyltetrazol-1-yl)-5-(4-fluorophenyl)-N-(2-methylbutan-2-yl)-benzamide]
420 | 90 | CC(C)c1nnnn1-c1cc(C(=O)NC(C)(C)C2CC2)cc(-c2ccc(C(F)(F)F)cc2)c1 [Example 48, N-(2-Cyclopropylpropan-2-yl)-3-(5-propan-2-yltetrazol-1-yl)-5-[4-(trifluoromethyl)phenyl]benzamide]
260 | 73 | CC(C)c1nnnn1-c1cc(C(=O)NC2(C)CCS(=O)(=O)C2)cc(-c2ccc(Cl)cc2)c1 (racemic) [Example 45, (RS)-3-(4-Chlorophenyl)-N-(3-methyl-1,1-dioxothiolan-3-yl)-5-(5-propan-2-yltetrazol-1-yl)benzamide]
530 | 106.5 | CC(C)(C)c1nnnn1-c1cc(C(=O)NC(C)(C)C2CC2)cc(-c2ccc(Cl)c(F)c2)c1 [Example 112, 3-(5-tert-Butyltetrazol-1-yl)-5-(4-chloro-3-fluorophenyl)-N-(2-cyclopropylpropan-2-yl)-benzamide]
480 | 78 | CCC(C)(C)NC(=O)c1cc(-c2ccc(Cl)cc2)cc(-n2nnnc2C2CC2)c1 [Example 55, 3-(4-Chlorophenyl)-5-(5-cyclopropyltetrazol-1-yl)-N-(2-methylbutan-2-yl)-benzamide]
210 | 83 | CC(C)c1nnnn1-c1cc(C(=O)NC(C)(C)C2CC2)cc(-c2ccc(Cl)cc2)c1 [Example 44, 3-(4-Chlorophenyl)-N-(2-cyclopropylpropan-2-yl)-5-(5-propan-2-yltetrazol-1-yl)-benzamide]
780 | 85 | Cc1nnnn1-c1cc(C(=O)NC(C)(C)CO)cc(-c2ccc(F)cc2)c1 [Example 84, 3-(4-Fluorophenyl)-N-(1-hydroxy-2-methylpropan-2-yl)-5-(5-methyltetrazol-1-yl)-benzamide]
540 | 203 | Cc1cc(-c2cc(C(=O)NC(C)(C)C(F)(F)F)cc(-n3nnnc3C(C)(C)C)c2)ccc1F [Example 118, 3-(5-tert-Butyltetrazol-1-yl)-5-(4-fluoro-3-methylphenyl)-N-(1,1,1-trifluoro-2-methylpropan-2-yl)-benzamide]
650 | 112.5 | CC(C)c1nnnn1-c1cc(C(=O)NC2(C)CCS(=O)(=O)C2)cc(-c2ccc(F)cc2)c1 (racemic) [Example 63, (RS)-3-(4-Fluorophenyl)-N-(3-methyl-1,1-dioxothiolan-3-yl)-5-(5-propan-2-yltetrazol-1-yl)-benzamide]
240 | 98 | Cc1nnnn1-c1cc(C(=O)NC(C)(C)C)cc(-c2ccc(Cl)cc2)c1 [Example 67, N-tert-Butyl-3-(4-chlorophenyl)-5-(5-methyltetrazol-1-yl)-benzamide]
410 | 80 | CC(C)(CO)NC(=O)c1cc(-c2ccc(F)cc2)cc(-n2nnnc2C2CC2)c1 [Example 71, 3-(5-Cyclopropyltetrazol-1-yl)-5-(4-fluorophenyl)-N-(1-hydroxy-2-methylpropan-2-yl)-benzamide]
